In ChEMBL document CHEMBL1137324, “Novel selective orally active CRTH2 antagonists for allergic inflammation developed from in silico derived hits” (J Med Chem, 2006):

How the values were obtained:
[1] = molecular target: T1, Prostaglandin D2 receptor 2 (Homo sapiens, UniProt Q9Y5Y4); experiment: Antagonist activity against CRTH2 receptor measured as inhibition of PGD2-induced beta-arrestin translocation in HEK293 cells by BRET assay; type: functional, cell-based
T1 sequence (Q9Y5Y4 whole entry): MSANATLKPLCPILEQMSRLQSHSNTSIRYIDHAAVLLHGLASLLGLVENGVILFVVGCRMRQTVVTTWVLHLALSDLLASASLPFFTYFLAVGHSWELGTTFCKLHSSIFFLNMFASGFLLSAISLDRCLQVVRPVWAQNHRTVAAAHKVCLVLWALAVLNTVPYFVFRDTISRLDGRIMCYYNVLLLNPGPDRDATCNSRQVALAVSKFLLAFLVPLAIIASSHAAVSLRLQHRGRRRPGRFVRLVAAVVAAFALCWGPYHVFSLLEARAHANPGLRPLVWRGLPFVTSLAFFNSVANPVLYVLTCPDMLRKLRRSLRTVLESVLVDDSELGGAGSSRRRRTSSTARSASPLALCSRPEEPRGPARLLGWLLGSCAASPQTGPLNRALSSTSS

[2] = molecular target: T1, Prostaglandin D2 receptor 2; experiment: Displacement of [3H]PGD2 from human CRTH2 receptor expressed in HEK293 cells; type: cell-based
Mus musculus = experiment: Inhibition of peribronchial eosinophilia in BALB/c mouse at 100 mg/kg, po relative to control; type: functional

SMILES	IC50 [1] [nM]	IC50 [2] [nM]	inhibition in vivo at 100 mg/kg (Mus musculus) [%]
CC(=O)c1cc(Br)ccc1OCC(=O)O	4520	510	–
CCOC(=O)COc1ccc(Br)cc1C(=O)c1cnn(-c2ccccc2)c1	3000	165	–
O=C(O)COc1ccc(-c2ccccc2)cc1C(=O)c1cnn(-c2ccccc2)c1	485	42	–
Cc1ccc(OCC(=O)O)c(C(=O)c2cnn(-c3ccccc3)c2)c1	587	48	–
C[C@]12CCC(=O)C=C1CC[C@@H]1[C@@H]2[C@@H](O)C[C@@]2(C)[C@H]1CC[C@]2(O)C(=O)CO [HYDROCORTISONE]	–	–	94
O=C(O)COc1ccccc1/C=N/NC(=O)COc1ccc(Cl)cc1Cl	6320	555	–
O=C(O)COc1ccc(Br)cc1/C=N/Nc1nncc(-c2ccccc2)n1	3210	89	–
O=C(O)COc1ccc(F)cc1C(=O)c1cnn(-c2ccccc2)c1	1320	108	–
O=Cc1cc(Br)ccc1OCC(=O)O	481	124	–
COc1ccc(OCC(=O)O)c(C(=O)c2cnn(-c3ccccc3)c2)c1	4200	151	–
Cc1ccc(NCC(=O)N/N=C/c2ccccc2OCC(=O)O)cc1	60200	3660	–
O=C(O)COc1ccc(Br)cc1C(=O)c1ccno1	2650	391	–
O=C(O)COc1ccccc1C(=O)c1cnn(-c2ccccc2)c1	5350	510	–
O=C(O)COc1ccc(-c2ccc(Cl)cc2)cc1C(=O)c1cnn(-c2ccccc2)c1	448	37	–
O=Cc1ccccc1OCC(=O)O	50000	1970	–
O=C(O)COc1ccc(Br)cc1CO	6870	886	–
O=C(O)COc1ccccc1/C=N/NC(=O)Cn1cnc2ccccc21	81700	12800	–
O=C(O)COc1ccc(Br)cc1/C=N/Nc1cccc2cccnc12	643	54	–
Cc1cc(C(=O)N/N=C/c2ccccc2OCC(=O)O)[nH]n1	> 100000	11200	–
COc1ccc(-c2cnnc(N/N=C/c3ccccc3OCC(=O)O)n2)cc1	> 100000	1580	–
O=C(O)COc1ccc(Br)cc1/C=N/Nc1ccccn1	3490	255	–
O=C(O)COc1ccc(Br)cc1C(=O)c1ccccc1	437	53	–

Further compounds by falling IC50 [1], results first:

IC50 [1] [nM]	IC50 [2] [nM]	SMILES	inhibition in vivo at 100 mg/kg (Mus musculus) [%]
423	61	CC(C)(C)c1cc(Br)ccc1OCC(=O)O	–
236	47	O=C(O)COc1ccc([N+](=O)[O-])cc1C(=O)c1cnn(-c2ccccc2)c1	–
185	15	O=C(O)COc1ccc(Cl)cc1C(=O)c1cnn(-c2ccccc2)c1	–
147	13	O=C(O)COc1ccc(-c2cc(F)cc(F)c2)cc1C(=O)c1cnn(-c2ccccc2)c1	–
53	3.6	COc1ccc(-n2cc(C(=O)c3cc(Br)ccc3OCC(=O)O)cn2)cc1	–
31	3.4	O=C(O)COc1ccc(Br)cc1C(=O)c1cnn(-c2cccc(Br)c2)c1	–
17	1.5	O=C(O)COc1ccc(Br)cc1C(=O)c1cnn(-c2ccc(Cl)cc2)c1	–
13	1.4	O=C(O)COc1ccc(Br)cc1C(=O)c1cnn(-c2ccc(Br)cc2)c1	–
12	1.9	O=C(O)COc1ccc(Br)cc1C(=O)c1cnn(-c2ccccc2Br)c1	–
